Data on eight compounds can be found in publication PMC4540356 (Thrombosis and haemostasis, 2010).

One experiment has as its target αvβ3. Particulars: read-out: affinity of αvβ3 to ligand; ref [30]–[31]; cited from earlier work.
In experiment [1] the target is T1, integrin αvβ3 (Homo sapiens, UniProt P05106+P06756). Description: Inhibition of HEK-αvβ3 adhesion to immobilised fibrinogen by soluble peptide. Particulars: wells coated with 1 μg/ml fibrinogen; 30 min, n=3. The class given is cell-based.
The next experiment deals with endothelial cells. Conditions: thrombin immobilised to a surface, ref [15]–[17]; cited from earlier work.
Experiment [2] deals with HUVEC. Briefly: Inhibition of HUVEC adhesion to immobilised fibrinogen by soluble peptide. In kind it is cell-based, human. Conditions: wells coated with 1 μg/ml fibrinogen; 30 min, n=3.
The target in experiment [3] is T1, integrin αvβ3. Briefly: Adhesion of HEK-αvβ3 cells to immobilised TP508 peptides. The class given is cell-based. Conditions: calcein AM-labelled cells, 30 min, 37°C, fluorescence (Ex485/Em530), n=3.
For experiment [4], the system named is HUVEC. Briefly: Adhesion of HUVEC to immobilised TP508 peptides. The class given is cell-based, human. Particulars: calcein AM-labelled cells, 30 min, 37°C, fluorescence, n=3.
In experiment [5] the target is T1, integrin αvβ3. Description: Surface plasmon resonance, binding to integrin αvβ3. Conditions: BIAcore 2000, CM5 chip, 1,290 RU RAD-TP508, αvβ3 0.053 to 1.06 μM.
A further experiment relates to rat aortic rings. Briefly: Muscle-bath assay, carbachol-induced vasorelaxation of rat aortic rings. Further details: species or system rat (Sprague Dawley). Particulars: no TP508, 500 nM norepinephrine 10 min, cumulative 750 nM carbachol; n=3 aortas.
Experiment [6] relates to HUVEC. Briefly: Nitric oxide assay in HUVEC. In kind it is cell-based, human. Conditions: 150 μg/ml TP508 vs 20 μM A23187, 1 h, n=4 (p>0.05).

T1 sequence (P06756 31-889 limits assumed): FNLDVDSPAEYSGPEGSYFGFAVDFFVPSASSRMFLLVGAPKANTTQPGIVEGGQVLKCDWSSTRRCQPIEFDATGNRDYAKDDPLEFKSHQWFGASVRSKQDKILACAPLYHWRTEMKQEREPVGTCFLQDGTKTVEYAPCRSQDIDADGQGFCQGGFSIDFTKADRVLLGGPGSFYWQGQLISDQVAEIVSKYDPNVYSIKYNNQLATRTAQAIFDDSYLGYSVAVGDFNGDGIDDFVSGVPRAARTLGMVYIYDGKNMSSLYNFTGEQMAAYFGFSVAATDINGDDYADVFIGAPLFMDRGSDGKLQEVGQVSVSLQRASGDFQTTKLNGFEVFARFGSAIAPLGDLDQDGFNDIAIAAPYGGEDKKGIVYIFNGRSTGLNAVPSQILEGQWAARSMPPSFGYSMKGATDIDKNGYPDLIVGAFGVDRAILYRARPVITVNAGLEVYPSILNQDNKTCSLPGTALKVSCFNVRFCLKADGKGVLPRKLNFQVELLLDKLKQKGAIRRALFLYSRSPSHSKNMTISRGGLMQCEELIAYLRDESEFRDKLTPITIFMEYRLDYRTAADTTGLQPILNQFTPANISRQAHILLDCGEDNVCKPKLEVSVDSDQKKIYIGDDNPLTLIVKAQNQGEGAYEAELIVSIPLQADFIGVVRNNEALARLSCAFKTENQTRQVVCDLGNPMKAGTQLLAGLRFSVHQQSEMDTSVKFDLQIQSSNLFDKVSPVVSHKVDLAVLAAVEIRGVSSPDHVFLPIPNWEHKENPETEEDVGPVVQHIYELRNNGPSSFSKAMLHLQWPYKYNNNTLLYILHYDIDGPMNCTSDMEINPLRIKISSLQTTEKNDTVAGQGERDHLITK
T1 sequence (P06756 891-1048 partner limits assumed): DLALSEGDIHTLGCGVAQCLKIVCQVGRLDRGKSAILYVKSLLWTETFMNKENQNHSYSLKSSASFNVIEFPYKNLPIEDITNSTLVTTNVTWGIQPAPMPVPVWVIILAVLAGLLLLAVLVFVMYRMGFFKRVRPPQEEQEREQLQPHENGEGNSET
T1 sequence (P05106 27-788): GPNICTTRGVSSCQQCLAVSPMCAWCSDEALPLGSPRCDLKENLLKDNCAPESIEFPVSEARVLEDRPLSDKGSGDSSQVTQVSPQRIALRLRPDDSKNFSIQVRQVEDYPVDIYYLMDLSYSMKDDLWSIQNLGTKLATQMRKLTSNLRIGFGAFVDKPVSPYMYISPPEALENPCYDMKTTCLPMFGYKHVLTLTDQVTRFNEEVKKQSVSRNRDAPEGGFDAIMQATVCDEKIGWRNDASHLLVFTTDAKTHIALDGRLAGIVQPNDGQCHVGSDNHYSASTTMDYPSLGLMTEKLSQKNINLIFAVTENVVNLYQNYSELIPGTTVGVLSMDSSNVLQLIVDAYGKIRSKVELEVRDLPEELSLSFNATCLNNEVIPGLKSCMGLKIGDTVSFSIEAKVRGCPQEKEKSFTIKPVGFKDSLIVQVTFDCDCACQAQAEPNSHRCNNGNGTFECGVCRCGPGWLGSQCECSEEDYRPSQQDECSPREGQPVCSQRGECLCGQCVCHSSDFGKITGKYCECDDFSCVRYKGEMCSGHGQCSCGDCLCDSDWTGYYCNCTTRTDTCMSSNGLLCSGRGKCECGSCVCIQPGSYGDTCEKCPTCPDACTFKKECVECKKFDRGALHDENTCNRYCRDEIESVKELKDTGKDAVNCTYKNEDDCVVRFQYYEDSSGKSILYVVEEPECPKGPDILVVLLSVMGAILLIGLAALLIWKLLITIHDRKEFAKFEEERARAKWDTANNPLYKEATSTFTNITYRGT

With “vitronectin: physiological ligand of αvβ3”, the Kd on αvβ3 is 27 nM.

For GRGDSP, the “effect of soluble peptide on HEK-αvβ3 adhesion to immobilised fibrinogen” value at integrin αvβ3 [1] is “effectively inhibited cell adhesion”.

Thrombin: the “endothelial cell adhesion to immobilised thrombin” value in the experiment on endothelial cells is “support endothelial cell adhesion in an RGD-dependent manner”. Take KAPSEVDKAGDRDGYGFCGGPGE [scrTP508]: the “effect of soluble peptide on HUVEC adhesion to immobilised fibrinogen” value in the experiment on HUVEC [2] is “did not affect HUVEC adhesion to immobilised fibrinogen”. In addition, the “adhesion of HEK-αvβ3 cells to immobilised peptide” value at integrin αvβ3 [3] was “did not support HEK-αvβ3 adhesion”. Further, in the experiment with HUVEC [4], the “adhesion of HUVEC to immobilised peptide” value is given as “did not support HUVEC adhesion”. With AGYKPDEGKRADACEGDSGGPFV [RAD-TP508], the “effect of soluble peptide on HUVEC adhesion to immobilised fibrinogen” value with HUVEC [2] is listed as “did not affect HUVEC adhesion to immobilised fibrinogen”. For the same compound, the “adhesion of HEK-αvβ3 cells to immobilised peptide” value at integrin αvβ3 [3] is listed as “did not support HEK-αvβ3 adhesion”. The “binding of αvβ3 to coupled peptide (SPR)” value at integrin αvβ3 [5] is “No binding”. Further, the “adhesion of HUVEC to immobilised peptide” value in the experiment with HUVEC [4] is recorded as “did not support HUVEC adhesion”. Take `C[N+](C)(C)CCOC(N)=O` [carbachol]: the “vasorelaxation by carbachol in rings not treated with TP508, 750 nM” value in the experiment with rat aortic rings stood at 20%. Consider fibrinogen: Human fibrinogen, for which the Kd at αvβ3 is 64 nM. Take `CNc1ccc2oc(C[C@H]3O[C@@]4(CC[C@H]3C)O[C@H]([C@H](C)C(=O)c3ccc[nH]3)[C@H](C)C[C@H]4C)nc2c1C(=O)O` [A23187]: the “NO induction by TP508 compared with A23187” value with HUVEC [6] is on record as “a potent inducer of NO”.
